Results published in patent publication US20090304607A1, “Antibacterial Flavor and Fragance Composition and Halitosis-Inhibition Flavor and Fragrance Composition and Oral Care Composition Containing the Same” (TAKASAGO INTERNATIONAL CORPORATION, priority 2002, published 2009).

Key:
[1] = test system: volatile sulfide production from saliva; assay: Inhibition of volatile sulfide production from saliva (anaerobic culture, FPD-GC of head space); format: cell-based; details: saliva cultured 37° C. 3 hours under nitrogen
Experimental: A test of inhibitory activity of the fragrance materials on volatile sulfide production from saliva was carried out according to the following method. Saliva was collected in a 50 ml of sterile centrifuge tube from testee without brushing teeth in the morning between 9 to 10 o'clock, and was cooled on ice until use. Each of 2 ml of the saliva was put into sterile test tube with screw cap aseptically. Saliva only was used as control and that mixed with 20 μl of ethanol was used as reference.
After the addition of samples, the inner air was replaced nitrogen in a stream of nitrogen gas at 0.5 atm under stirring with a voltex mixer. Cultivation was carried out at 37° C. for 3 hours and cooled on ice until use. Volatile sulfides were analyzed by a gas chromatograph (FPD-GC) with a flame photometer. In this connection, the samples after the culture were stored in ice-water until their analysis.
Column: 6 m×4 mm i.d. (glass packed column) Column liquid phase: 20% DNP on 80/100 mesh Chromosorb W AW DMCS Column temperature: 100° C. Carrier gas (flow rate): N2 (40 ml/min) Injection temperature: 120° C. Detector: FPD (flame photometric detector; fitted with 393 nm filter for sulfur compound detection) Detector temperature: 150° C.
The inhibition rate of methyl mercaptan was determined according to the following equation:
Inhibition rate (%) of methyl mercaptan={(Blank−Sample)/Blank}×100
Blank and Sample in the equation represent the quantities of producing methyl mercaptan in respective cases. […]

[2] = test system: Fusobacterium nucleatum JCM 6328 (Fn-1); assay: Bactericidal activity, CFU measuring method per Quantitative Suspension Test (EN 1276); format: cell-based; details: for Results of Judgment 30 sec (Log decrease of number of bacteria vs control): 30 sec contact; for Results of Judgment 1 min (Log decrease of number of bacteria vs control): 1 min contact
Experimental: The strain used in the bactericidal activity was obtained from The Institute of Physical and Chemical Research which was known to be a pathogen of periodontal disease and also known to produce volatile sulfides.
Fn-1 was cultured on slants of GAM medium (Nissui Pharmaceutical Co. Ltd.) and added physical saline to make a cell suspension. In detail, to each slant cultured at 37° C. for 24 hours under an anaerobic condition using BBL gas-pack anaerobic system, 2 ml of physiological saline was added and scraped off the microbes with a transfer loop to make a cell suspension. This operation was repeated twice, and the combined suspension was centrifugalized, added again a half amount of physiological saline to the precipitate to make the suspension. The suspension was filtered through two sheets of sterile gauze to remove agar pieces and fibrous cells. The filtrate was centrifugalized again, the precipitate was re-suspended in physiological saline to use for the tests.
As for test solutions, fragrance samples were dissolved in equal weight of dimethylformamide (DMF) and were diluted with ethanol to necessary concentrations (volume/volume).
Each test solution (30 μl) was added to sterile distilled water and stirred or subjected to ultrasonic treatment to dissolve sample or to form a homogeneous suspension.
To each solution or homogeneous suspension, 333 μl of previous cell suspension of Fn-1 was added and stirred. After 30 seconds and 1 minute, each 333 μl was added to 3 ml of D/E Neutralization broth (DIFCO) (10 fold dilution), 100 fold and 1000 fold dilution liquids were made similarly. Each 50 μl of the liquid was spread on 15 ml of Trypticase soy agar plates using Autoplate 4000 (Spiral Biotec Co. Ltd., MD, USA) and were cultivated at 37° C. for 40 hours under anaerobic condition. After the cultivation, colonies were counted by Q-Count (Spiral Biotec Co. Ltd., MD, USA) to determine CFU/ml.
Suspension, as a control, consisted of 3 ml of water and 333 μl of the cell suspension, and also suspension as a reference, consisted of 3 ml of water, 30 μl of ethanol and 333 μl of the cell suspension was employed to determine CFU/ml thereof.
“30 sec” and “1 min” were shown the sampling time, and “Log inc.” was shown the mean Log value of the control.

[3] = 1000 ppm, read-out: CH3SH Inhib. %
[4] = 500 ppm, read-out: CH3SH Inhib. %
[5] = 100 ppm, read-out: CH3SH Inhib. %

Molecule: CCOC(=O)c1ccccc1O [Ethyl salicylate]
- inhibition at 1000 ppm [1, 3]: 100%

Molecule: C=C1CCC2CC1C2(C)C (stereo not drawn) [β-Pinene]
- Results of Judgment 30 sec (Log decrease of number of bacteria vs control) ([2]; 500 ppm): 0.71 Log
- Results of Judgment 1 min (Log decrease of number of bacteria vs control) ([2]; 500 ppm): 1.12 Log
- inhibition at 500 ppm [1, 4]: 59%

Molecule: CC=Cc1ccc(O)c(OC)c1 [Isoeugenol]
- Results of Judgment 30 sec (Log decrease of number of bacteria vs control) ([2]; 500 ppm): >3.93 Log
- Results of Judgment 1 min (Log decrease of number of bacteria vs control) ([2]; 500 ppm): >3.93 Log
- inhibition at 500 ppm [1, 4]: 100%

Molecule: C=C(C)[C@H]1CC=C(C)CC1 [d-Limonene]
- Results of Judgment 30 sec (Log decrease of number of bacteria vs control) ([2]; 500 ppm): 0.93 Log
- Results of Judgment 1 min (Log decrease of number of bacteria vs control) ([2]; 500 ppm): 1.50 Log
- CH3SH Inhib. % ([1]; 3000 ppm): 100%

Molecule: CCCCCC(C=O)=Cc1ccccc1 [α-Amylcinnamicaldehyde]
- CH3SH Inhib. % ([1]; 500 ppm): 99%

Molecule: CCCCCC=O [Hexylaldehyde]
- CH3SH Inhib. % ([1]; 300 ppm): 82%

Molecule: CC1=CCC(=C(C)C)CC1 [Terpinolene]
- Results of Judgment 30 sec (Log decrease of number of bacteria vs control) ([2]; 100 ppm): 1.16 Log
- Results of Judgment 1 min (Log decrease of number of bacteria vs control) ([2]; 100 ppm): 1.63 Log
- inhibition at 100 ppm [1, 5]: 36%

Molecule: CCCc1ccc(O)c(OC)c1 [Dihydroeugenol]
- Results of Judgment 30 sec (Log decrease of number of bacteria vs control) ([2]; 2000 ppm): >3.42 Log
- Results of Judgment 1 min (Log decrease of number of bacteria vs control) ([2]; 2000 ppm): >3.42 Log
- CH3SH Inhib. % ([1]; 2000 ppm): 100%

Molecule: CC1=CCC(C(C)C)=CC1 [γ-Terpinene]
- Results of Judgment 30 sec (Log decrease of number of bacteria vs control) ([2]; 500 ppm): 0.94 Log
- Results of Judgment 1 min (Log decrease of number of bacteria vs control) ([2]; 500 ppm): 1.26 Log
- inhibition at 500 ppm [1, 4]: 66%

Molecule: CC1(C)C[C@H]2[C@H]1CC[C@]1(C)CCC[C@@]2(O)C1 [Caryophyllene alcohol]
- Results of Judgment 30 sec (Log decrease of number of bacteria vs control) ([2]; 500 ppm): 1.13 Log
- Results of Judgment 1 min (Log decrease of number of bacteria vs control) ([2]; 500 ppm): 2.25 Log
- CH3SH Inhib. % ([1]; 500 ppm): 100%

Molecule: C=CCc1ccc(O)c(OC)c1 [Eugenol]
- inhibition at 500 ppm [1, 4]: 100%

Molecule: CC(C)=CCC/C(C)=C/CCC(C)CCO (stereo not shown) [Dihydrofarnesol]
- Results of Judgment 30 sec (Log decrease of number of bacteria vs control) ([2]; 300 ppm): >3.42 Log
- Results of Judgment 1 min (Log decrease of number of bacteria vs control) ([2]; 300 ppm): >3.42 Log
- CH3SH Inhib. % ([1]; 300 ppm): 100%

Molecule: O=C/C=C/c1ccccc1 [Cinnamicaldehyde]
- Results of Judgment 30 sec (Log decrease of number of bacteria vs control) ([2]; 2000 ppm): >3.42 Log
- Results of Judgment 1 min (Log decrease of number of bacteria vs control) ([2]; 2000 ppm): >3.42 Log
- inhibition at 2000 ppm ([1]; 2000 ppm, read-out: CH3SH Inhib. %): 100%

Molecule: CCCCCCCC1CCC(=O)O1 (stereo not shown) [γ-Undecalactone]
- CH3SH Inhib. % ([1]; 100 ppm): 70%

Molecule: COc1ccccc1C=CC=O [o-Methoxycinnamicaldehyde]
- Results of Judgment 30 sec (Log decrease of number of bacteria vs control) ([2]; 1000 ppm): 2.61 Log
- Results of Judgment 1 min (Log decrease of number of bacteria vs control) ([2]; 1000 ppm): 3.85 Log
- CH3SH Inhib. % ([1]; 1000 ppm): 100%

Molecule: L-Carvone
- CH3SH Inhib. % ([1]; 1000 ppm): 100%

Molecule: C=CCOC(=O)CCC1CCCCC1 [Allyl cyclohexylpropionate]
- CH3SH Inhib. % ([1]; 500 ppm): 92%

Molecule: CCCCCCC1CCC(=O)O1 (stereo not shown) [γ-Decalactone]
- CH3SH Inhib. % ([1]; 100 ppm): 59%

Molecule: COC(=O)c1ccccc1O [Methyl salicylate]
- inhibition at 1000 ppm [1, 3]: 100%

Molecule: CC(C)=CCCC(C)=CC=O [Citral]
- inhibition at 500 ppm [1, 4]: 100%

Molecule: COC(/C=C/c1ccccc1)OC [Cinnamicaldehyde dimethyl acetal]
- CH3SH Inhib. % ([1]; 1000 ppm): 100%

Molecule: CC(C)[C@@H]1CC[C@@H](C)C[C@H]1OCC(O)CO (stereo partly shown) [Menthoxypropanediol]
- CH3SH Inhib. % ([1]; 1000 ppm): 100%

Molecule: CC1CCC(C(C)C)C(O)C1 (stereo not shown) [Menthol]
- inhibition at 3000 ppm ([1]; 3000 ppm, read-out: CH3SH Inhib. %): 100%

Molecule: CC(C)c1cccc(=O)c(O)c1 [Hinokitiol]
- Results of Judgment 30 sec (Log decrease of number of bacteria vs control) ([2]; 1000 ppm): >5.24 Log
- Results of Judgment 1 min (Log decrease of number of bacteria vs control) ([2]; 1000 ppm): >5.24 Log
- inhibition at 1000 ppm [1, 3]: 100%

Molecule: Cc1ccc(C(C)C)c(O)c1 [Thymol]
- inhibition at 300 ppm ([1]; 300 ppm, read-out: CH3SH Inhib. %): 100%

Molecule: C=CC(C)(CCC=C(C)C)OC(C)=O (stereo not shown) [Linalyl acetate]
- inhibition at 500 ppm [1, 4]: 43%

Molecule: C=CCOC(=O)CCCCCC [Allyl enanthate]
- inhibition at 1000 ppm [1, 3]: 100%

Molecule: CC(C)=CCCC(C)=CCCC(C)=CCO [Farnesol]
- Results of Judgment 30 sec (Log decrease of number of bacteria vs control) ([2]; 100 ppm): 3.70 Log
- Results of Judgment 1 min (Log decrease of number of bacteria vs control) ([2]; 100 ppm): >4.18 Log
- inhibition at 100 ppm [1, 5]: 100%
